Source: PMC7891601 (Clinical Pharmacology and Therapeutics, 2020)
Where two headings read alike, the source gives them in different places.

Assays:
[1] = type: in vivo, human; conditions: for impact of metformin administration on CLr: control vs baseline; for AUC / CLr: adjusted geometric mean; for AUC: AUC0–24; for CLr: 0–24 h; for mean plasma concentration (Cav): mean ± SEM
[2] = test system: MATE1/2‐K; test: Nonlinear regression of CLr ratio vs pyrimethamine plasma concentration; type: in vivo, human; conditions: regression against pyrimethamine Cav
[3] = test system: MATE2‐K; conditions: read-out: Ki for MATE2‐K‐mediated creatinine uptake; cited from earlier work
[4] = in humans; cited from earlier work
[5] = molecular target: T1, MATE1 (Homo sapiens, UniProt Q96FL8); type: cell-based; conditions: In vitro Ki of pyrimethamine, 2 min, HEK293
T1 sequence (Q96FL8 1-570): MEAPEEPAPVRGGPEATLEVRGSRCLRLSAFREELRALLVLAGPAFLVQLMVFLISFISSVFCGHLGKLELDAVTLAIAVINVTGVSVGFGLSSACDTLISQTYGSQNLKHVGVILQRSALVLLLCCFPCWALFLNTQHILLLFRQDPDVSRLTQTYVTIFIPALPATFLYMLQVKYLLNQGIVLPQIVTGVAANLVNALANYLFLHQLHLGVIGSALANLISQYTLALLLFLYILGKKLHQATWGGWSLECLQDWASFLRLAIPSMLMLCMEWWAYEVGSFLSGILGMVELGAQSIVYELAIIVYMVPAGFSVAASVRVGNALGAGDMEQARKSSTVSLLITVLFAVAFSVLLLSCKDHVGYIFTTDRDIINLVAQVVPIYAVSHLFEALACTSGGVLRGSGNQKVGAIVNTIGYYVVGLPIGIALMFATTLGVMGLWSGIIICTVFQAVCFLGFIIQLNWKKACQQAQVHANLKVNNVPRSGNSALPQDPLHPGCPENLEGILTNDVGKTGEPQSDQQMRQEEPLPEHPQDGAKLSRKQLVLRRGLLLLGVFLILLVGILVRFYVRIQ

[6] = test system: MATE1; conditions: read-out: Ki for MATE1‐mediated creatinine uptake; cited from earlier work
[7] = molecular target: MATE2‐K (Homo sapiens, UniProt Q86VL8); type: cell-based; conditions: In vitro Ki of pyrimethamine, HEK293
[8] = molecular target: T2, SLC29A1/equilibrative nucleoside transporter 1 (Homo sapiens, UniProt Q99808); test: Uptake of m1A in HEK293 cells with and without inhibitors; type: cell-based; conditions: m1A 100 μM, HEK293, 15 min, inhibitor 10 μM
T2 sequence (Q99808 2-456): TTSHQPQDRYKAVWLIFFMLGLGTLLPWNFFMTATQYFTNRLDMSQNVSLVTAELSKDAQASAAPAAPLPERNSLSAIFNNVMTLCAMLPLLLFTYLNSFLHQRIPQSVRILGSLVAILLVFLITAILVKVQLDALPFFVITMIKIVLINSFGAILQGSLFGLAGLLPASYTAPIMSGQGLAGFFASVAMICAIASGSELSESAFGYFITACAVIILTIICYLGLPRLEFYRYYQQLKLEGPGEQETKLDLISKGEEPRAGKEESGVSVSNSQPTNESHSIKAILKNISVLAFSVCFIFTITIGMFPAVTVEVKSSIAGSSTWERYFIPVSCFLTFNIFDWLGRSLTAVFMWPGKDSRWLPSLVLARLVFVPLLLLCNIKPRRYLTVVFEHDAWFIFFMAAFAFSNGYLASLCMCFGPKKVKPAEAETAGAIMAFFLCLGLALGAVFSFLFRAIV

[9] = molecular target: T3, OAT1 (Homo sapiens, UniProt Q4U2R8); test: Inhibition of PAH uptake in OAT1-expressing HEK293 cells; type: cell-based
T3 sequence (Q4U2R8 1-563): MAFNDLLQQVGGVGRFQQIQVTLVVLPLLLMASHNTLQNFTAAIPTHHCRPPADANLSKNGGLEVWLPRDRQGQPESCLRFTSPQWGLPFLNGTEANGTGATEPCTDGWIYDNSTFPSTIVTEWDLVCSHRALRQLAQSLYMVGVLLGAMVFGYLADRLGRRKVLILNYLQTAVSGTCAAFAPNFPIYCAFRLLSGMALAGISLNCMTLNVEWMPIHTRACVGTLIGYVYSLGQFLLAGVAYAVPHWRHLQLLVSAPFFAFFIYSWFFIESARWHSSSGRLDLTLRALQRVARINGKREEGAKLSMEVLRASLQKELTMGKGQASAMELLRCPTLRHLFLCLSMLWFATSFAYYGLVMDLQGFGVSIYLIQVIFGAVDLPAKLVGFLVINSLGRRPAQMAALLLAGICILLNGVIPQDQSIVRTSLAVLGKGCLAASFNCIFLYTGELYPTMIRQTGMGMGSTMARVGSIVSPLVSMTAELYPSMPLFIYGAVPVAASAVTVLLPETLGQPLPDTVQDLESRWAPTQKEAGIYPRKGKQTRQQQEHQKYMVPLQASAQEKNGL

[10] = molecular target: T4, OAT3 (Homo sapiens, UniProt Q8TCC7); test: Inhibition of ES uptake in OAT3-expressing HEK293 cells; type: cell-based
T4 sequence (Q8TCC7 1-542): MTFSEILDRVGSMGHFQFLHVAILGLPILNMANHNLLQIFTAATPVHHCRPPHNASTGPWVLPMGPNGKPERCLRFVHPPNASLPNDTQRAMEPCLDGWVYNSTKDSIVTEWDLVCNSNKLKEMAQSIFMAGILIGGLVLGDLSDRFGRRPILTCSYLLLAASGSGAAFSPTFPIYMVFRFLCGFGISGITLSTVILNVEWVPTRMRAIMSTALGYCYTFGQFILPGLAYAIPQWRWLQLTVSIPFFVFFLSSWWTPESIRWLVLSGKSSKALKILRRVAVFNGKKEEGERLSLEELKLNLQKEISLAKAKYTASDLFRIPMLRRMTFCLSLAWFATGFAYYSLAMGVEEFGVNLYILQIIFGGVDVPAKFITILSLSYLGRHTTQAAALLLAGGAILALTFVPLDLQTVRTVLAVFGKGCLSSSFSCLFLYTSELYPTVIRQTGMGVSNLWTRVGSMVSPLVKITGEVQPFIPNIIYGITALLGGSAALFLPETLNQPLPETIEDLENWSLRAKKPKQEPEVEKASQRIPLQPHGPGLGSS

[11] = test system: OAT2; conditions: read-out: half‐maximal inhibitory concentration, OAT2; cited from earlier work
[12] = molecular target: T5, OCT2 (Homo sapiens, UniProt O15244); type: cell-based; conditions: In vitro Ki of pyrimethamine, HEK293
T5 sequence (O15244 1-555): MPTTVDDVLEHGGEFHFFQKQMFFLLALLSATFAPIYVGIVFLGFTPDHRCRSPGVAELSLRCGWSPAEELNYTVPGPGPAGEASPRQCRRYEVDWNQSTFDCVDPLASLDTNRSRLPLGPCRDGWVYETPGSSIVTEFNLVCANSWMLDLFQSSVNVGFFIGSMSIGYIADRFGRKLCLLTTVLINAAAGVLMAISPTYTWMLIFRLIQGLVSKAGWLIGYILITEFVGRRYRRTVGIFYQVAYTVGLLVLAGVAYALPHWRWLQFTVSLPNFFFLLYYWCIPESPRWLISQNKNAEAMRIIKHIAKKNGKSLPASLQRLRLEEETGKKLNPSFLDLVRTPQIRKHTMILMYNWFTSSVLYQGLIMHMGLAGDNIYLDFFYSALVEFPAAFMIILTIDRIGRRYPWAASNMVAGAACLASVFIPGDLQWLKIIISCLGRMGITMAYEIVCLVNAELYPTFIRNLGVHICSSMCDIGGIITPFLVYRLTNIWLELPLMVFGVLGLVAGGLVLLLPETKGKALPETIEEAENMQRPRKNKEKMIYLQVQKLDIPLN

[13] = pyrimethamine 75 mg + metformin
[14] = control phase (metformin 500 mg alone)
[15] = pyrimethamine 10 mg + metformin
[16] = pyrimethamine 25 mg + metformin

MATE2‐K (Homo sapiens, UniProt Q86VL8), sequence (Q86VL8 1-566 isoform Q86VL8-3): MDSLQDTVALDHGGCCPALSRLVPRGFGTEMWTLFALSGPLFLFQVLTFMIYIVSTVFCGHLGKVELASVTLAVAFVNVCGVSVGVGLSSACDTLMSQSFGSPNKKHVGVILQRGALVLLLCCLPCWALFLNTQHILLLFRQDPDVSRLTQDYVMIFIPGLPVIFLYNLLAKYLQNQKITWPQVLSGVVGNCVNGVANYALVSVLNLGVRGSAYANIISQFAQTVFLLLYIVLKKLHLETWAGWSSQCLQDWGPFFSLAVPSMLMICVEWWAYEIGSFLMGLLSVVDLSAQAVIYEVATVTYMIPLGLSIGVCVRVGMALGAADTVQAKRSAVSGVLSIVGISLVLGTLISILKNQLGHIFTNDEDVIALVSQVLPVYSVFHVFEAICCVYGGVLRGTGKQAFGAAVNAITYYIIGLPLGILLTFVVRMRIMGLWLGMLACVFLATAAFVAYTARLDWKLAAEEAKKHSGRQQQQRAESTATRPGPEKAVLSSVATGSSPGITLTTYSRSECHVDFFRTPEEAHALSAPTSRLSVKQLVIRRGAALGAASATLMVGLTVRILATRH

For CN1CC(=O)NC1=N [Creatinine, creatinine], the “impact of metformin administration on CLr” value [1] was under 7% and the “f PYR (contribution of tubular secretion to urinary excretion)” value [2] was 26%.

For CN(C)C(=N)N=C(N)N [Metformin, metformin], the “decrease in CLr by pyrimethamine” value ([1]; pyrimethamine 10 mg vs control) was 12%, the “decrease in CLr by pyrimethamine” value ([1]; pyrimethamine 25 mg vs control) was 34% and the “increase in AUC by pyrimethamine” value ([1]; pyrimethamine 25 mg vs control) was 24%. The AUC [1, 13] was 122.9 µM·h, the “decrease in CLr by pyrimethamine” value ([1]; pyrimethamine 75 mg vs control) was 55% and the “increase in AUC by pyrimethamine” value ([1]; pyrimethamine 75 mg vs control) was 69%.

Work on Cc1ncc(CO)c(C(=O)O)c1O [PDA, pyridoxic acid] yielded a CLr [1, 14] of 545.1 mL/min, an AUC [1, 14] of 0.2912 µM·h and a CLr [1, 15] of 584.6 mL/min. It also gave an AUC [1, 15] of 0.2142 µM·h, a CLr [1, 16] of 603.1 mL/min and an AUC [1, 16] of 0.1772 µM·h. For the same molecule, the CLr [1, 13] was 423.7 mL/min, the AUC [1, 13] was 0.1647 µM·h and the “decrease in CLr by pyrimethamine” value ([1]; pyrimethamine 75 mg vs control) was 22%.

In the case of Cn1cnc2c(ncn2[C@@H]2O[C@H](CO)[C@@H](O)[C@H]2O)c1=N [m^1A, N ^1‐methyladenosine], the “contribution of the tubular secretion” value ([1]; assumed from CLr vs creatinine clearance at 75 mg) is reported as 41%, the “CLr relative to creatinine clearance” value ([1]; control conditions, vs corresponding creatinine clearance) is reported as 1.3 fold and the “impact of metformin administration on CLr” value [1] is reported as under 7%.

In the case of CCc1nc(N)nc(N)c1-c1ccc(Cl)cc1 [pyrimethamine], the Ki [3] is given as 220 nM, the “elimination half‐life” value [4] is given as “ca. 100 hours” and the Ki ([5]; MATE1, substrate 1‐NMN 10 μM) is given as 125 ± 26 nM. For the same molecule, the Ki ([5]; MATE1, substrate metformin 10 μM) was 154 ± 29 nM, the Ki [6] was 170 nM and the “mean plasma concentration (Cav)” value ([1]; 10 mg single oral dose) was 287 ± 24 nM. For the same molecule, the “mean plasma concentration (Cav)” value ([1]; 25 mg single oral dose) was 781 ± 31 nM, the “mean plasma concentration (Cav)” value ([1]; 75 mg single oral dose) was 2470 ± 180 nM and the Ki ([7]; substrate 1‐NMN 10 μM, 2 min) was 82.1 ± 18 nM. For the same molecule, the Ki ([7]; substrate m1A 100 μM, 30 min) was 68 ± 15 nM, the Ki ([7]; substrate metformin 10 μM, 2 min) was 94.1 ± 16 nM and the “effect of inhibitor on uptake of m1A (ENT1)” value [8] was “minimal”. For the same molecule, the IC50 [9] was 241000 ± 55000 nM, the IC50 [10] was 9690 ± 2270 nM and the IC50 [11] was over 100000 nM. For the same molecule, the Ki ([12]; OCT2, substrate 1‐NMN 10 μM, 2 min) was 41200 ± 9100 nM, the Ki ([12]; OCT2, substrate m1A 100 μM, 30 min) was 466 ± 43 nM and the Ki ([12]; OCT2, substrate metformin 10 μM, 2 min) was 37900 ± 5600 nM.
